Data reported in patent US6193992A, “Female sexual dysfunction treatment” (Pentech Pharmaceuticals, Inc., priority 1999, dated 2001).
Entries after “also recorded” stand apart in the source; their conditions may differ.

How the values were obtained:
[1] = system: clitoral intracavernosal blood flow; assay: Effect of apomorphine on clitoral intracavernosal blood flow (laser Doppler flow) before and after pelvic nerve stimulation; type: in vivo, New Zealand White female rabbits; conditions: intravenous, female rabbits
Experimental: (§1) New Zealand White female rabbits (n=6, about 3.5-4 kg) were anesthetized with intravenous administration of pentobarbital. A 20 gauge angiocatheter was placed into the right carotid artery for measurement of systemic arterial pressure. A midline abdominal incision was made and the pelvic nerve branch to the vagina and clitoris was dissected. Nerve stimulation was performed with a Harvard subminiature electrode placed around the pelvic nerve branch to the vagina and clitoris and connected to a Grass SD-9 stimulator. Clitoral intracavernosal and vaginal wall blood flow were measured with a laser Doppler flow probe placed directly into the clitoral cavernosal tissue or into the vaginal wall and connected to a laser Doppler flowmeter.
(§2) Basal arterial blood pressure and clitoral and vaginal blood flow were each recorded before and then after stimulation of the pelvic nerve branch to the clitoris and vagina.

vaginal wall blood flow = assay: Effect of apomorphine on vaginal wall blood flow (laser Doppler flow) before and after pelvic nerve stimulation; type: in vivo, New Zealand White female rabbits; conditions: female rabbits
Experimental: as §1, §2

[2] = system: systemic arterial pressure; assay: Effect of apomorphine on systemic arterial pressure; type: in vivo, New Zealand White female rabbits; conditions: intravenous, female rabbits, FIG. 3
Experimental: as §1, §2

[3] = system: vaginal and clitoral blood flow; assay: Optimum dose for vasculogenic effect on nerve stimulated vaginal and clitoral blood flow; type: in vivo, New Zealand White female rabbits; conditions: female rabbits
Experimental: as §1, §2

[4] = system: sexual readiness (clitoral erectogenesis and vaginal engorgement on sexual stimulation); assay: Extrapolation of rabbit optimum dose to human females (sexual readiness dose)
penile erection = conditions: cited from earlier work
emesis = conditions: subcutaneous, about a 5-milligram dose; cited from earlier work
[5] = apomorphine hydrochloride studies reported in the literature; cited from earlier work

CN1CCc2cccc3c2[C@H]1Cc1ccc(O)c(O)c1-3 [apomorphine, Apomorphine]
nerve stimulation-induced peak clitoral intracavernosal blood flow, concentration dependence ([1]; 0.05 mg/kg to 0.2 mg/kg, FIG. 1): concentration dependent increase
nerve stimulation-induced peak clitoral intracavernosal blood flow, significance vs before apomorphine administration ([1]; 0.1 mg/kg, 0.2 mg/kg and 0.3 mg/kg, FIG. 1): statistically significant increase; also recorded: significant increase in nerve stimulation-induced peak clitoral intracavernosal blood flow
effect on baseline clitoral intracavernosal blood flow ([1]; before nerve stimulation): did not affect baseline clitoral intracavernosal blood flow
effect on nerve stimulation-induced increase in vaginal wall blood flow (vaginal wall blood flow; 0.4 mg/kg): adverse effect
nerve stimulation-induced peak vaginal wall blood flow, concentration dependence (vaginal wall blood flow; intravenous, 0.05 and 0.2 mg/kg, FIG. 2): concentration dependent increase
nerve stimulation-induced peak vaginal wall blood flow, significance vs before apomorphine administration (vaginal wall blood flow; intravenous, 0.1 and 0.2 mg/kg, FIG. 2): statistically significant increase; also recorded: significant increase in vaginal wall blood flow
effect on basal vaginal wall blood flow (vaginal wall blood flow; intravenous, before nerve stimulation): did not affect basal vaginal wall blood flow
diastolic arterial pressure ([2]; increasing doses 0.05-0.4 mg/kg): concentration dependent moderate decrease
systolic arterial pressure [2]: minimal effect
optimum intravenous dosage for vasculogenic effect on nerve stimulated vaginal and clitoral blood flow ([3]; body weight): about 100 μg/kg
optimal dose ([3]; intravenous): about 0.1 mg/kg
optimum dosage for human females ([4]; correlated from rabbit intravenous dosage (about 1/10)): ~10 µg/kg
effective dose in a human female ([4]; correlated from rabbit intravenous dose (about 1/10)): about 0.01 mg/kg
significant sexual readiness dose ([4]; sublingual tablet, women, about 70 kilograms): about 76 μg/kg
significant sexual readiness dosage ([4]; sublingual, 70 kg weight woman): about 76 micrograms/kg
erectogenic effect in males (penile erection; males, research and clinical studies): erectogenic effect manifested by penile erection
induction of erection on oral administration (penile erection; oral, psychogenic patient, U.S. Pat. No. 5,624,677 and Heaton et al.): can be used to induce an erection
plasma concentration maintained for stimulation sufficient to cause an erection (penile erection; sublingual, patient): no more than 5.5 ng/ml
emetic effect (emesis): emetic
pharmacokinetics, females versus males [5]: the same for both females and males
